Results taken from ChEMBL document CHEMBL4017472, “New modified 2-aminobenzimidazole nucleosides: Synthesis and evaluation of their activity against herpes simplex virus type 1” (Bioorg Med Chem Lett, 2017).

Experiments:
[1] = tested on: Human alphaherpesvirus 1; assay: Antiviral activity against acyclovir-resistant HSV-1 L2 infected in African green monkey Vero E6 cells assessed as viral reproduction at 52 uM measured after 48 hrs post infection by gentian violet staining based plaque reduction assay (reference value: 5.95 +/- 0.03 log10PFU/ml); format: functional, Vero C1008
[2] = tested on: Human alphaherpesvirus 1; assay: Antiviral activity against HSV1 L2 infected in African green monkey Vero E6 cells assessed as reduction in virus-induced cytopathic effect; format: functional; settings: Human alphaherpesvirus 1, L2, Vero C1008
[3] = Selectivity index, ratio of MCC for African green monkey Vero E6 cells to IC50 for HSV-1 L2 infected in African green monkey Vero E6 cells; parameters: species or system Vero C1008
[4] = tested on: Human alphaherpesvirus 1; assay: Potency index, ratio of maribavir IC50 to compound IC50 for HSV-1 L2 infected in African green monkey Vero E6 cells; format: functional, Vero C1008
[5] = tested on: Human alphaherpesvirus 1; assay: Antiviral activity against acyclovir-resistant HSV-1 L2 infected in African green monkey Vero E6 cells assessed as reduction in virus-induced cytopathic effect; format: functional; settings: Human alphaherpesvirus 1, L2, Vero C1008
[6] = Selectivity index, ratio of MCC for African green monkey Vero E6 cells to IC50 for HSV-1 L2/Rp-ACV/2 infected in African green monkey Vero E6 cells; parameters: species or system Vero C1008
[7] = tested on: Human alphaherpesvirus 1; assay: Antiviral activity against foscarnet-resistant HSV-1 F+ infected in African green monkey Vero E6 cells assessed as reduction in virus-induced cytopathic effect; format: functional; settings: Human alphaherpesvirus 1, F+, Vero C1008
[8] = tested on: Human alphaherpesvirus 1; assay: Antiviral activity against acyclovir and foscarnet-resistant HSV-1 L2 infected in African green monkey Vero E6 cells assessed as reduction in virus-induced cytopathic effect; format: functional; settings: Human alphaherpesvirus 1, L2, Vero C1008
[9] = tested on: Human alphaherpesvirus 1; assay: Antiviral activity against acyclovir and cidofovir-resistant HSV-1 L2 infected in African green monkey Vero E6 cells assessed as reduction in virus-induced cytopathic effect; format: functional; settings: Human alphaherpesvirus 1, L2, Vero C1008
[10] = tested on: Human alphaherpesvirus 1; assay: Antiviral activity against HSV-1 L2 infected in African green monkey Vero E6 cells assessed as viral reproduction at 52 uM measured after 48 hrs post infection by gentian violet staining based plaque reduction assay (reference value: 6.91 +/- 0.05 log10PFU/ml); format: functional, Vero C1008
[11] = tested on: Human alphaherpesvirus 1; assay: Antiviral activity against foscarnet-resistant HSV-1 F+ infected in African green monkey Vero E6 cells assessed as viral reproduction at 52 uM measured after 48 hrs post infection by gentian violet staining based plaque reduction assay (reference value: 6.6 +/- 0.1 log10PFU/ml); format: functional, Vero C1008
[12] = tested on: Human alphaherpesvirus 1; assay: Antiviral activity against acyclovir and foscarnet-resistant HSV-1 L2 infected in African green monkey Vero E6 cells assessed as viral reproduction at 52 uM measured after 48 hrs post infection by gentian violet staining based plaque reduction assay (reference value: 5.92 +/- 0.11 log10PFU/ml); format: functional, Vero C1008
[13] = tested on: Human alphaherpesvirus 1; assay: Antiviral activity against acyclovir and cidofovir-resistant HSV-1 L2 infected in African green monkey Vero E6 cells assessed as viral reproduction at 52 uM measured after 48 hrs post infection by gentian violet staining based plaque reduction assay (reference value: 6.52 +/- 0.11 log10PFU/ml); format: functional, Vero C1008
[14] = tested on: Human alphaherpesvirus 1; assay: Antiviral activity against acyclovir-resistant HSV-1 L2 infected in African green monkey Vero E6 cells assessed as viral reproduction at 104 uM measured after 48 hrs post infection by gentian violet staining based plaque reduction assay (reference value: 5.95 +/- 0.03 log10PFU/ml); format: functional, Vero C1008
[15] = tested on: Human alphaherpesvirus 1; assay: Antiviral activity against HSV-1 L2/Rp-ACV/2 infected in African green monkey Vero E6 cells assessed as viral reproduction at 104 uM measured after 48 hrs post infection by gentian violet staining based plaque reduction assay (reference value: 6.05 +/- 0.1 log10PFU/ml); format: functional, Vero C1008
[16] = tested on: Human alphaherpesvirus 1; assay: Antiviral activity against acyclovir and cidofovir-resistant HSV-1 L2 infected in African green monkey Vero E6 cells assessed as viral reproduction at 104 uM measured after 48 hrs post infection by gentian violet staining based plaque reduction assay (reference value: 6.52 +/- 0.11 log10PFU/ml); format: functional, Vero C1008
[17] = tested on: Human alphaherpesvirus 1; assay: Antiviral activity against HSV-1 L2 infected in African green monkey Vero E6 cells assessed as viral reproduction at 207 uM measured after 48 hrs post infection by gentian violet staining based plaque reduction assay (reference value: 6.91 +/- 0.05 log10PFU/ml); format: functional, Vero C1008
[18] = tested on: Human alphaherpesvirus 1; assay: Antiviral activity against acyclovir-resistant HSV-1 L2 infected in African green monkey Vero E6 cells assessed as viral reproduction at 207 uM measured after 48 hrs post infection by gentian violet staining based plaque reduction assay (reference value: 5.95 +/- 0.03 log10PFU/ml); format: functional, Vero C1008
[19] = tested on: Human alphaherpesvirus 1; assay: Antiviral activity against HSV-1 L2/Rp-ACV/2 infected in African green monkey Vero E6 cells assessed as viral reproduction at 207 uM measured after 48 hrs post infection by gentian violet staining based plaque reduction assay (reference value: 6.05 +/- 0.1 log10PFU/ml); format: functional, Vero C1008
[20] = tested on: Human alphaherpesvirus 1; assay: Antiviral activity against foscarnet-resistant HSV-1 F+ infected in African green monkey Vero E6 cells assessed as viral reproduction at 207 uM measured after 48 hrs post infection by gentian violet staining based plaque reduction assay (reference value: 6.6 +/- 0.1 log10PFU/ml); format: functional, Vero C1008
[21] = tested on: Human alphaherpesvirus 1; assay: Antiviral activity against HSV-1 L2 infected in African green monkey Vero E6 cells assessed as viral reproduction at 415 uM measured after 48 hrs post infection by gentian violet staining based plaque reduction assay (reference value: 6.91 +/- 0.05 log10PFU/ml); format: functional, Vero C1008
[22] = tested on: Human alphaherpesvirus 1; assay: Antiviral activity against HSV-1 L2/Rp-ACV/2 infected in African green monkey Vero E6 cells assessed as viral reproduction at 415 uM measured after 48 hrs post infection by gentian violet staining based plaque reduction assay (reference value: 6.05 +/- 0.1 log10PFU/ml); format: functional, Vero C1008
[23] = tested on: Human alphaherpesvirus 1; assay: Antiviral activity against foscarnet-resistant HSV-1 F+ infected in African green monkey Vero E6 cells assessed as viral reproduction at 415 uM measured after 48 hrs post infection by gentian violet staining based plaque reduction assay (reference value: 6.6 +/- 0.1 log10PFU/ml); format: functional, Vero C1008
[24] = tested on: Human alphaherpesvirus 1; assay: Antiviral activity against acyclovir and foscarnet-resistant HSV-1 L2 infected in African green monkey Vero E6 cells assessed as viral reproduction at 415 uM measured after 48 hrs post infection by gentian violet staining based plaque reduction assay (reference value: 5.92 +/- 0.11 log10PFU/ml); format: functional, Vero C1008
[25] = tested on: Human alphaherpesvirus 1; assay: Antiviral activity against HSV-1 L2 infected in African green monkey Vero E6 cells assessed as inhibition of viral reproduction measured after 48 hrs post infection by gentian violet staining based plaque reduction assay; format: functional; settings: Vero C1008
[26] = tested on: Human alphaherpesvirus 1; assay: Antiviral activity against acyclovir-resistant HSV-1 L2 infected in African green monkey Vero E6 cells assessed as inhibition of viral reproduction measured after 48 hrs post infection by gentian violet staining based plaque reduction assay; format: functional; settings: Vero C1008
[27] = tested on: Human alphaherpesvirus 1; assay: Antiviral activity against foscarnet-resistant HSV-1 F+ infected in African green monkey Vero E6 cells assessed as inhibition of viral reproduction measured after 48 hrs post infection by gentian violet staining based plaque reduction assay; format: functional; settings: Vero C1008
[28] = tested on: Human alphaherpesvirus 1; assay: Antiviral activity against acyclovir and foscarnet-resistant HSV-1 L2 infected in African green monkey Vero E6 cells assessed as inhibition of viral reproduction measured after 48 hrs post infection by gentian violet staining based plaque reduction assay; format: functional; settings: Vero C1008
[29] = tested on: Human alphaherpesvirus 1; assay: Antiviral activity against acyclovir and cidofovir-resistant HSV-1 L2 infected in African green monkey Vero E6 cells assessed as inhibition of viral reproduction measured after 48 hrs post infection by gentian violet staining based plaque reduction assay; format: functional; settings: Vero C1008

In the case of `Nc1nc2cc(F)c(F)cc2n1[C@@H]1O[C@H](CO)[C@@H](O)[C@H]1O`, the Activity [1] is reported as 5.04 log10PFU/ml, the IC50 [2] is reported as 104 µM and the IC95 [2] is reported as 830 µM. The “Selectivity Index” value [3] was over 32, the “Ratio IC50” value [4] was 8 and the IC50 [5] was 104 µM. The IC95 [5] was 830 µM, the “Selectivity Index” value [6] was over 32 and the IC50 [7] was 208 µM. It also gave an IC95 [7] of 830 µM, an IC50 [8] of 208 µM and an IC95 [8] of 830 µM. The IC50 [9] was 208 µM, the IC95 [9] was 830 µM and the Activity [10] was 6.11 log10PFU/ml. The Activity [11] was 5.9 log10PFU/ml, the Activity [12] was 5.4 log10PFU/ml and the Activity [13] was 5.71 log10PFU/ml. It also gave an Activity [14] of 4.44 log10PFU/ml, an Activity [15] of 4.76 log10PFU/ml and an Activity [16] of 5.39 log10PFU/ml. For the same molecule, the Activity [17] was 5.16 log10PFU/ml, the Activity [18] was 4.15 log10PFU/ml and the Activity [19] was 4.55 log10PFU/ml. For the same molecule, the Activity [20] was 4.87 log10PFU/ml, the Activity [21] was 4.38 log10PFU/ml and the Activity [22] was 4.06 log10PFU/ml. The Activity [23] was 3.9 log10PFU/ml, the Activity [24] was 4.02 log10PFU/ml and the inhibition [25] was “Dose-dependent effect”. For the same molecule, the inhibition [26] was “Dose-dependent effect”, the inhibition [27] was “Dose-dependent effect” and the inhibition [28] was “Dose-dependent effect”. For the same molecule, the inhibition [29] was “Dose-dependent effect”.
